These results are taken from patent US8986733B2, “Materials and methods for nerve repair” (University of Florida Research Foundation, Inc., priority 2001, dated 2015).

Data set [1] deals with embryonic chick DRG neurons. Briefly: Cryoculture assay of nerve explant cultures (predegeneration). To be noted: 2-day, 2% serum culture with GM6001 (50 μM); 68% without. The data set is classed as cell-based. An excerpt:
Nerve explant culture for predegeneration experiments. Adult (180-200 gm) female SPRAGUE DAWLEY rats (HARLAN, Indianapolis, Ind.) were used as nerve donors and graft recipients. This project was reviewed and approved by the Institutional Animal Care and Use Committee. Donor rats were deeply anesthetized with isofluorane and decapitated. Sciatic nerves were exposed through a gluteal muscle-splitting incision and isolated free of underlying fascia. A 15-mm nerve segment was excised rostral to the bifurcation into common peroneal and tibial nerves. The segments were rinsed with sterile Ringer's solution and stabilized by pinning the ends to a thin plastic support. […]
Cryoculture bioassay. […] Neurite lengths were measured directly using IMAGE-PRO PLUS software (MEDIA CYBERNETICS, Silver Springs, Md.). At least 250 neurons with neurites greater than one cell body (˜15 μm) were scored for each condition in each experiment.
Freshly excised (cellular) rat sciatic nerve segments were cultured for up to 7 days in medium containing 0, 2 and 10% fetal bovine serum. Control (uncultured) and cultured nerves were cryosectioned and their neurite-promoting activity was assessed by cryoculture assay. […]

Data set [2] deals with MMP gelatinolytic activity. The data set can be described thus: In situ zymography of cultured nerve explants. The data set is classed as biochemical, rat. The settings on record: nerves cultured 2-day, 2% serum in presence of GM6001. Here is the method:
In situ zymography for nerve predegeneration experiments. Cryosections (10 μm) of unfixed normal and cultured nerves were mounted on slides and overlaid with reaction buffer (50 mM Tris-HCl, 150 mM NaCl, 5 mM CaCl2, 0.2 mM sodium azide, pH 7.6) containing 20 μg/ml of intramolecularly quenched, fluorescein-labeled gelatin substrate (MOLECULAR PROBES INC., Eugene, Oreg.) (Oh et al., 1999). In the control condition, the MMP inhibitor EDTA (30 mM) was included in the reaction buffer. After incubation for 24 h at 37° C., the sections were rinsed with PBS and fixed with 4% paraformaldehyde in phosphate buffer. The sections were rinsed with water and mounted using Citifluor. Fluorescein-gelatin peptides generated by gelatinolytic activity in the tissue sections were observed and photographed by epifluorescence microscopy.
The activity of MMPs is regulated by gene transcription, proenzyme activation and by the action of tissue inhibitors of metalloproteinases. The net gelatinolytic activity in nerve segments by in situ zymography was examined. Tissue sections were overlaid with quenched, fluorescein-gelatin, which is converted to fluorescent peptides by gelatinolytic activity within tissues. Constitutive gelatinolytic activity was detected in normal nerve mostly associated with Schwann cells aligned along the endoneurial basal lamina (as shown in FIGS. 17A and 17B). […]

The subject of data set [3] is cells of cultured nerve segments. Briefly: Dissociation culture (squash preparations) of nerve segments. It counts as cell-based, rat. The settings on record: nerve segments cultured 2 days with and without GM6001.

Entries after “also recorded” stand apart in the source; their conditions may differ.

For the compound `CNC(=O)[C@H](Cc1c[nH]c2ccccc12)NC(=O)[C@@H](CC(=O)NO)CC(C)C` [GM6001], the “increase in neurite length over control nerves for nerves cultured in presence of inhibitor” value in data set [1] worked out at 14%. The “gelatinolytic activity in treated nerve explants” value in data set [2] is “nearly undetectable; also recorded: markedly decreased”. In addition, the “cell viability (cell outgrowth)” value in data set [3] was “no loss of cell viability”.
